One experiment has as its target Histone deacetylase 1 (Homo sapiens, UniProt Q13547). As to the kind of experiment: Inhibition of C-terminal FLAG-His-tagged full length recombinant human HDAC1 expressed in Sf21 insect cells using RHKK(Ac)AMC as substrate by fluorescence-based assay.
Experiment [1] concerns the target T1, Proteasome Macropain subunit MB1 (Homo sapiens, UniProt P28074).
T1 sequence (P28074 whole entry): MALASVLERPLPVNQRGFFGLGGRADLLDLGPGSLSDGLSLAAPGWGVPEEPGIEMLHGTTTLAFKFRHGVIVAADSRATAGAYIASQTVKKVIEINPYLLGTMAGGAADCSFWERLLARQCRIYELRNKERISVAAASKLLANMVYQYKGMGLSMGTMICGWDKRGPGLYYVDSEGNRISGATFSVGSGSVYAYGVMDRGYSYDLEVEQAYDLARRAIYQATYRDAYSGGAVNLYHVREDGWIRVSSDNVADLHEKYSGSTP
In words: Inhibition of chymotrypsin-like activity of 20S proteasome in human HL60 cells using Suc-LLVY aminoluciferin as substrate after 2 hrs by proteasome-Glo assay. It is filed as cell-based.

The next experiment deals with SEM cells. As to the kind of experiment: Cell cycle arrest in human SEM cells assessed as accumulation at S phase after 48 hrs by propidium iodide staining-based FACS analysis. It is filed as functional. In general terms: A flow cytometer gives signals particle by particle.

This passage reports IC50 and Activity results from ChEMBL document CHEMBL4152390, “Discovery of the First-in-Class Dual Histone Deacetylase-Proteasome Inhibitor” (J Med Chem, 2018).

By IC50 is commonly meant the concentration at which inhibition is half-maximal.

Histone deacetylase 1, sequence (Q13547 whole entry): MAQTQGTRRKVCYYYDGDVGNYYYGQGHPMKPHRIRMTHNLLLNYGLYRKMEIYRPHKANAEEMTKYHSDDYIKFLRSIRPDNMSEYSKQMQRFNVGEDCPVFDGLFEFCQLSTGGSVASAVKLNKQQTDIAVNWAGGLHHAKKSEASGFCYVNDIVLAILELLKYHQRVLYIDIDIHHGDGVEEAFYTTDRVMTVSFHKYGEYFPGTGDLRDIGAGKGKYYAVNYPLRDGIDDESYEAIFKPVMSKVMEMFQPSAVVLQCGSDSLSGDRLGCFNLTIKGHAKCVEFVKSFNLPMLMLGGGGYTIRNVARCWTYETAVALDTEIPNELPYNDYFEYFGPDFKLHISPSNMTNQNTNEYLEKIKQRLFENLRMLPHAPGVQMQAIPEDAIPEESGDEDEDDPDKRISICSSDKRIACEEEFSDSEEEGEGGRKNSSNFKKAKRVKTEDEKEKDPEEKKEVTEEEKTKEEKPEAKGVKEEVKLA

On to `C[C@H](NC(=O)[C@H](CC(=O)NCC(C)(C)C)NC(=O)c1ccc(C(=O)NO)cc1)C(=O)NCc1ccccc1`, for which the IC50 is 6.9 µM on Histone deacetylase 1 and 0.26 µM in experiment [1]. For the same molecule, in the experiment on SEM cells, the Activity result was “Dose-dependent effect”.
